# Reference: US20240408099A1, “COMBINATION […] OF KRAS G12D INHIBITORS WITH Pan ErbB FAMILY INHIBITORS” (MIRATI THERAPEUTICS, INC., priority 2021, published 2024)
# Key:
# SU8684 = assay: Composite Synergy Score, Cell-Titer Glo 72 hours, dose matrix with MRTX1133; type: cell-based; details: combined with MRTX1133
# Description: (§1) Assays for determining the synergy score for the pairwise combinations for each cell line were performed in triplicate. Three 96-well plates plus an additional 4 wells of a separate 96-well control plate for determining baseline luminescence were seeded with 2000 cells/well of a particular cell line in a total volume of 90 μl of a suitable growth medium for that cell line, e.g., RPMI 1640 medium supplemented with 10% FBS and any cell line specific reagents need for growth. The plates were incubated overnight at 37° C. in a 5% CO2 atmosphere.
# (§2) To each of the designated baseline wells, 30 μl of Cell-Titer Glo reagent (CTG; Promega Corporation) was added to each well and the plates were incubated for 20 min with shaking at room temperature. Baseline luminescence was quantitated using a BMG ClarioStar multimode plate reader according to the manufacturer's instructions.
# (§3) A series of working stock 1000× drug dilutions in 100% DMSO was prepared that includes an 8 point single agent dilution of MRTX 1133 and a 5-point single agent dilution of the pan ErbB family inhibitor. The dilutions used for MRTX1133 and the pan ErbB family inhibitor varied for each individual compound but were in the range of 3- to 6-fold/serial dilution.
# (§4) A 10× intermediate dosing plate was prepared in serum free RPMI medium that contains arrayed single agent dilutions MRTX1133 or the pan ErbB family inhibitor. In addition, a matrix of 40 dilution combinations of MRTX1133 and the pan ErbB family inhibitor was prepared as test samples.
# (§5) To each corresponding well of the three 96-well plates seeded with the appropriate cell line above, 10 μl of each 10× single agent and the 40 combinations of the dose matrix was added and the plates were incubated for 72 hours at 37 C in 5% CO2 atmosphere. A 30 μl aliquot of Cell-Titer Glo reagent (CTG) was added to each test well, the plates were incubated for 20 min with shaking at room temperature, and luminescence was quantitated using a BMG ClarioStar multimode plate reader according to the manufacturer's instructions.
# (§6) The output of the data from each mathematical model is the assignment of a relative synergy score. The data reported in Table 1 are the aggregate sum of the Loewe additivity, Bliss independence, Highest Single Agent and ZIP scores (“Composite Synergy Score”).
# (§7) The output of the data from each mathematical model is the assignment of a relative synergy score.
# Panc0504 = assay: as above; type: cell-based; details: combined with MRTX1133
# Description: as §1, §2, §3, §4, §5, §6, §7
# HPAFII = assay: as above; type: cell-based; details: combined with MRTX1133
# Description: as §1, §2, §3, §4, §5, §6, §7
# SNU1033 = assay: as above; type: cell-based; details: combined with MRTX1133
# Description: as §1, §2, §3, §4, §5, §6, §7
# ASPC1 = assay: as above; type: cell-based; details: combined with MRTX1133
# Description: as §1, §2, §3, §4, §5, §6, §7
# SNUC2B = assay: as above; type: cell-based; details: combined with MRTX1133
# Description: as §1, §2, §3, §4, §5, §6, §7
# SW1990 = assay: as above; type: cell-based; details: combined with MRTX1133
# Description: as §1, §2, §3, §4, §5, §6, §7
# LS513 = assay: as above; type: cell-based; details: combined with MRTX1133
# Description: as §1, §2, §3, §4, §5, §6, §7
# SUIT2 = assay: as above; type: cell-based; details: combined with MRTX1133
# Description: as §1, §2, §3, §4, §5, §6, §7
# SNU410 = assay: as above; type: cell-based; details: combined with MRTX1133
# Description: as §1, §2, §3, §4, §5, §6, §7
# Panc1005 = assay: as above; type: cell-based; details: combined with MRTX1133
# Description: as §1, §2, §3, §4, §5, §6, §7
# SNU407 = assay: as above; type: cell-based; details: combined with MRTX1133
# Description: as §1, §2, §3, §4, §5, §6, §7
# Panc0403 = assay: as above; type: cell-based; details: combined with MRTX1133
# Description: as §1, §2, §3, §4, §5, §6, §7
# Panc1 = assay: as above; type: cell-based; details: combined with MRTX1133
# Description: as §1, §2, §3, §4, §5, §6, §7
# Panc0813 = assay: as above; type: cell-based; details: combined with MRTX1133
# Description: as §1, §2, §3, §4, §5, §6, §7
# GP2D = assay: as above; type: cell-based; details: combined with MRTX1133
# Description: as §1, §2, §3, §4, §5, §6, §7
# HCC1588 = assay: as above; type: cell-based; details: combined with MRTX1133
# Description: as §1, §2, §3, §4, §5, §6, §7
# HPAC = assay: as above; type: cell-based; details: combined with MRTX1133
# Description: as §1, §2, §3, §4, §5, §6, §7
# Panc0203 = assay: as above; type: cell-based; details: combined with MRTX1133
# Description: as §1, §2, §3, §4, §5, §6, §7
# SNU1197 = assay: as above; type: cell-based; details: combined with MRTX1133
# Description: as §1, §2, §3, §4, §5, §6, §7
# LS180 = assay: as above; type: cell-based; details: combined with MRTX1133
# Description: as §1, §2, §3, §4, §5, §6, §7
# Hec1B = assay: as above; type: cell-based; details: combined with MRTX1133
# Description: as §1, §2, §3, §4, §5, §6, §7
# AGS = assay: as above; type: cell-based; details: combined with MRTX1133
# Description: as §1, §2, §3, §4, §5, §6, §7
# SNU61 = assay: as above; type: cell-based; details: combined with MRTX1133
# Description: as §1, §2, §3, §4, §5, §6, §7
# LS180 cells = assay: LS180 colon cancer xenograft, tumor volumes; type: in vivo, nude/nude mice; details: for tumor growth inhibition: 30 mg/kg BID, single agent, Day 15
# Description: Immunocompromised nude/nude mice are inoculated in the right hind flank with cells harboring a KRas G12D mutation. When tumor volumes reach between 200-400 mm^3 in size, the mice are divided into four to five groups of 5 mice each. The first group is administered vehicle only. […] The fourth or last groups are administered the single agent dose of the KRas G12D inhibitor using the twice daily schedule and/or the 2 sequential days followed by 5 days off schedule in combination with the single agent dose of one of the EGFR inhibitors. […] Tumor volumes are measured using a caliper every two-three days and tumor volumes are calculated by the formula: […].
# 20 to 30 nude/nude mice per study were inoculated in the right hind limb with 5×10^6 LS180 cells, AsPC-1 cells, GP2D cells, Panc 02.03 cells, SW1990 cells, or SNU-1033 cells.
# Experimental Procedures. 25 nude/nude mice were inoculated with LS180 cells in the right hind flank. When the tumors reached ˜250 mm^3 five treatment groups were established with five mice per group.
structure (smiles),measurement,setting,value
"CN(C)C/C=C/C(=O)Nc1cc2c(Nc3ccc(F)c(Cl)c3)ncnc2cc1OC1CCOC1 (stereo not drawn) [Afatinib, (E)-N-(4-((3-chloro-4-fluorophenyl)amino)-7-((tetrahydrofuran-3-yl)oxy)quinazolin-6-yl)-4-(dimethylamino)but-2-enamide, reference compound]",Composite Synergy Score,SU8684,42
same,Composite Synergy Score,Panc0504,24
same,Composite Synergy Score,HPAFII,23
same,Composite Synergy Score,SNU1033,30
same,Composite Synergy Score,ASPC1,28
same,Composite Synergy Score,SNUC2B,25
same,Composite Synergy Score,SW1990,57
same,Composite Synergy Score,LS513,69
same,Composite Synergy Score,SUIT2,45
same,Composite Synergy Score,SNU410,−13
same,Composite Synergy Score,Panc1005,37
same,Composite Synergy Score,SNU407,23
same,Composite Synergy Score,Panc0403,40
same,Composite Synergy Score,Panc1,−6
same,Composite Synergy Score,Panc0813,20
same,Composite Synergy Score,GP2D,26
same,Composite Synergy Score,HCC1588,10
same,Composite Synergy Score,HPAC,33
same,Composite Synergy Score,Panc0203,54
same,Composite Synergy Score,SNU1197,63
same,Composite Synergy Score,LS180,76
same,Composite Synergy Score,Hec1B,−5
same,Composite Synergy Score,AGS,36
same,Composite Synergy Score,SNU61,44
"C#Cc1c(F)ccc2cc(O)cc(-c3ncc4c(N5C[C@H]6CC[C@@H](C5)N6)nc(OC[C@@]56CCCN5C[C@H](F)C6)nc4c3F)c12 [MRTX1133, 4-(4-((1R,5S)-3,8-diazabicyclo[3.2.1]octan-3-yl)-8-fluoro-2-(((2R,7aS)-2-fluorohexahydro-1H-pyrrolizin-7a-yl)methoxy)pyrido[4,3-d]pyrimidin-7-yl)-5-ethynyl-6-fluoronaphthalen-2-ol]",Average Tumor Volumes,"LS180 cells; 30 mg/kg BID 2x/week, Study Day 1",272.338 mm^3
same,Average Tumor Volumes,"LS180 cells; 30 mg/kg BID 2x/week, Study Day 4",570.528 mm^3
same,Average Tumor Volumes,"LS180 cells; 30 mg/kg BID 2x/week, Study Day 8",1134.668 mm^3
same,Average Tumor Volumes,"LS180 cells; 30 mg/kg BID 2x/week, Study Day 11",1439.99 mm^3
same,Average Tumor Volumes,"LS180 cells; 30 mg/kg BID 2x/week, Study Day 15",1899.832 mm^3
same,Average Tumor Volumes,"LS180 cells; 30 mg/kg BID Daily, Study Day 1",268.94 mm^3
same,Average Tumor Volumes,"LS180 cells; 30 mg/kg BID Daily, Study Day 4",418.808 mm^3
same,Average Tumor Volumes,"LS180 cells; 30 mg/kg BID Daily, Study Day 8",593.71 mm^3
same,Average Tumor Volumes,"LS180 cells; 30 mg/kg BID Daily, Study Day 11",808.808 mm^3
same,Average Tumor Volumes,"LS180 cells; 30 mg/kg BID Daily, Study Day 15",1197.106 mm^3
same,tumor growth inhibition,LS180 cells; daily administration,45%
same,tumor growth inhibition,LS180 cells; twice per week administration,4%
